Test results published in ChEMBL document CHEMBL2069167, “Synthesis and structure-activity relationship of (1-halo-2-naphthyl) carbamate-based inhibitors of KIAA1363 (NCEH1/AADACL1)” (Bioorg Med Chem Lett, 2012).

Key:
[1] = biological target: T1, Neutral cholesterol ester hydrolase 1 (Homo sapiens, UniProt Q6PIU2); experiment: Inhibition of human KIAA1363 expressed in 293T/17 cells using 2-thioacetyl MAGE as substrate preincubated for 20 mins measured after 1 hr; assay type: cell-based
T1 sequence (Q6PIU2 whole entry): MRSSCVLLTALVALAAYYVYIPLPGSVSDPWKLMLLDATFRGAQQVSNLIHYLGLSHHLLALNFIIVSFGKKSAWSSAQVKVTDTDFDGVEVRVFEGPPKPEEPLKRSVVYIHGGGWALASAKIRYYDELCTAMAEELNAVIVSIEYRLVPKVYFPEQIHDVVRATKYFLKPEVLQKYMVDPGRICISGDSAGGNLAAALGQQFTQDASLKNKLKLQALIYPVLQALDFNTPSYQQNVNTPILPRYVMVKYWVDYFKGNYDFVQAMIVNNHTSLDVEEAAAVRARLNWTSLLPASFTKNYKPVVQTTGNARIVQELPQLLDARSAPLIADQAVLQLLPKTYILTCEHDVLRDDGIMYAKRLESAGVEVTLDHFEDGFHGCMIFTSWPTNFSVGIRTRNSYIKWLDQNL

Mus musculus [2] = experiment: Inhibition of KIAA1363 in tumor of SCID mouse xenografted with human SK-OV-3 cells at 100 mg/kg, po after 2 hrs by fluorescence assay; assay type: functional; conditions: SK-OV-3, 2 h
Mus musculus [3] = experiment: Inhibition of KIAA1363 in tumor of SCID mouse xenografted with human SK-OV-3 cells at 100 mg/kg, ip after 2 hrs by fluorescence assay; assay type: functional; conditions: SK-OV-3, ip, route intraperitoneal
Mus musculus [4] = experiment: Inhibition of KIAA1363 in heart of SCID mouse at 100 mg/kg, ip after 2 hrs by fluorescence assay; assay type: functional; conditions: route intraperitoneal

Structure (SMILES)	IC50 [1] [µM]	inhibition in vivo at 100 mg/kg (Mus musculus [2]) [%]	also measured
CN(C)C(=O)Oc1ccc2ccccc2c1Cl	1.1		
CN(C)C(=O)Oc1ccccc1Br	> 100		
CN(C)C(=O)Oc1ccc2ccccc2c1C#N	> 100		
CN(C)C(=O)Oc1ccc2cc(C#N)ccc2c1Br		14	
CCCc1ccc2c(Br)c(OC(=O)N(C)C)ccc2c1		22	inhibition in vivo at 100 mg/kg (Mus musculus [3]): 64%; inhibition in vivo at 100 mg/kg (Mus musculus [4]): 66%
CN(C)C(=O)Oc1ccc2cc(Br)ccc2c1Br		18	
CN(C)C(=O)Oc1ccc2ccccc2c1 [NAPHTHALEN-2-YL DIMETHYLCARBAMATE]	> 100		
